Values quoted from earlier work as cited in paper PMC8309005, “Novel Non-Congeneric Derivatives of the Choline Kinase Alpha Inhibitor ICL-CCIC-0019” (Pharmaceutics, 2021).

Assays:
HT-29 = system: HT-29; set-up: method as in ref 20, 21 (MN58B), 23 (RSM-932A); settings: 21 (MN58B), 23 (RSM-932A); cited from earlier work
A431 = system: A431; set-up: method as in PMID 12678804, PMID 10397253; settings: cited from earlier work
CHKA = system: CHKA; set-up: method as in ref 18, 25 (HC-3), 20, 21 (MN58B), 23 (RSM-932A); settings: CHKA inhibitors of Figure 1; 25 (HC-3), 20, 21 (MN58B), 23 (RSM-932A); cited from earlier work
HeLa = system: HeLa; set-up: method as in ref 20, 21 (MN58B), 23 (RSM-932A); settings: 21 (MN58B), 23 (RSM-932A); cited from earlier work
MCF-7 = system: MCF-7; set-up: method as in PMID 12678804, PMID 10397253; settings: cited from earlier work
HepG2 = system: HepG2; set-up: method as in PMID 25487918; settings: cited from earlier work

**Q.** Which GI50 (HT-29) does the source give for `CN(C)c1cc[n+](Cc2ccc(CCCCc3ccc(C[n+]4ccc(N(C)C)cc4)cc3)cc2)cc1` [MN58B] here?
**A.** 1400 nM

**Q.** What about the GI50 (A431) of the same compound?
**A.** 2100 nM

**Q.** What about the IC50 (CHKA) of the same compound?
**A.** 1400 nM

**Q.** And the GI50 (HeLa)?
**A.** 1200 nM

**Q.** What about the GI50 (MCF-7) of the same compound?
**A.** 600 nM

**Q.** Which results are given for `C/[N+](c1ccc(Cl)cc1)=c1\ccn(Cc2ccc(-c3ccc(Cn4cc/c(=[N+](/C)c5ccc(Cl)cc5)c5ccccc54)cc3)cc2)c2ccccc12` [RSM-932A]?
**A.** GI50 (HT-29): 1300 nM; IC50 (CHKA): 1000 nM; GI50 (HeLa): 1000 nM; GI50 (HepG2): 1300 nM
